Measurements from patent US11426465B2, “Hydrazinyl-indole compounds and methods for producing a conjugate” (Redwood Bioscience, Inc., priority 2012, dated 2022).

Legend:
[1] = HPLC kinetics assay: condensation of model amines with benzyloxyacetaldehyde; conditions: 50 μM amine and aldehyde, room temperature, 2 h, above pH 6
Method: Experimental Protocol for HPLC Kinetics Assay: Reaction mixtures contained amine 4, 6, 7, or 8 (50 μM), benzyloxyacetaldehyde (50 μM), bromocresol green (10 μM), and buffer (10 mM) in a 120 μL aqueous solution containing 6.7% MeCN, which was present to solubilize the stock solution (1 mM) of benzyloxyacetaldehyde. After 2 h at room temperature, a 100 μL aliquot was analyzed by HPLC, employing a gradient of 10 to 100% acetonitrile in water over 18 min.
As described above, buffered solutions containing 50 μM amine and aldehyde were incubated at room temperature for 2 h prior to analysis by HPLC.

[2] = basic moiety of the compound (trialkylhydrazine / O-alkylaminooxy); cited from earlier work

SMILES: CNN(C)Cc1cc2ccccc2n1CCC(=O)O [Compound 4, Piperidinium 3-(2-((1,2-dimethylhydrazinyl)methyl)-1H-indol-1-yl)propanoate]
- % conversion to product [1]: higher % conversion to product than the other amine nucleophiles
- pKa [2]: ~6.56
